# According to ChEMBL document CHEMBL3046389, “Synthesis and biological evaluation of novel hydroquinone dimethyl ethers as potential anticancer and antimicrobial agents” (2013):
# Assays:
# Assay type in all cases: functional
# [1] = system: HCT-116; test: Growth inhibition of Homo sapiens (human) HCT116 cells at 10 uM after 48 hr by SRB assay; settings: HCT-116, 48 h, read-out: GI
# [2] = system: HCC 2998; test: Growth inhibition of Homo sapiens (human) HCC2998 cells at 10 uM after 48 hr by SRB assay; settings: HCC 2998, 48 h, read-out: GI
# [3] = system: U-251; test: Anticancer activity against Homo sapiens (human) U251 cells after 48 hr by SRB assay; settings: U-251, 48 h
# [4] = system: KM12; test: Anticancer activity against Homo sapiens (human) KM12 cells after 48 hr by SRB assay; settings: KM12, 48 h
# [5] = system: HCC 2998; test: Anticancer activity against Homo sapiens (human) HCC2998 cells after 48 hr by SRB assay; settings: HCC 2998, 48 h
# [6] = system: COLO 205; test: Anticancer activity against Homo sapiens (human) COLO205 cells after 48 hr by SRB assay; settings: COLO 205, 48 h
# [7] = system: NCI-H23; test: Growth inhibition of Homo sapiens (human) NCI-H23 cells at 10 uM after 48 hr by SRB assay; settings: NCI-H23, 48 h, read-out: GI
# [8] = system: Staphylococcus aureus; test: Antimicrobial activity against Staphylococcus aureus DSM 1104 after 48 hr by two-fold serial broth dilution method; settings: DSM 1104, 48 h
# [9] = system: MDA-MB-468; test: Anticancer activity against Homo sapiens (human) MDA-MB-468 cells after 48 hr by SRB assay; settings: MDA-MB-468, 48 h
# [10] = system: T47D; test: Anticancer activity against Homo sapiens (human) T47D cells after 48 hr by SRB assay
# [11] = system: BT-549; test: Anticancer activity against Homo sapiens (human) BT549 cells after 48 hr by SRB assay; settings: BT-549, 48 h
# [12] = system: MDA-MB-231; test: Anticancer activity against Homo sapiens (human) MDA-MB-231/ATCC cells after 48 hr by SRB assay; settings: MDA-MB-231, 48 h
# [13] = system: DU-145; test: Anticancer activity against Homo sapiens (human) DU145 cells after 48 hr by SRB assay; settings: DU-145, 48 h
# [14] = system: PC-3; test: Anticancer activity against Homo sapiens (human) PC3 cells after 48 hr by SRB assay; settings: PC-3, 48 h
# [15] = system: UO-31; test: Anticancer activity against Homo sapiens (human) UO31 cells after 48 hr by SRB assay; settings: UO-31, 48 h
# [16] = system: CAKI-1; test: Anticancer activity against Homo sapiens (human) CAKI-1 cells after 48 hr by SRB assay; settings: CAKI-1, 48 h
# [17] = system: 786-0; test: Growth inhibition of Homo sapiens (human) 786-0 cells at 10 uM after 48 hr by SRB assay; settings: 786-0, 48 h, read-out: GI
# [18] = system: UACC-62; test: Anticancer activity against Homo sapiens (human) UACC62 cells after 48 hr by SRB assay; settings: UACC-62, 48 h
# [19] = system: SK-MEL-5; test: Anticancer activity against Homo sapiens (human) SK-MEL-5 cells after 48 hr by SRB assay; settings: SK-MEL-5, 48 h
# [20] = system: Bacillus subtilis; test: Antimicrobial activity against Bacillus subtilis ATCC 6633 after 48 hr by two-fold serial broth dilution method; settings: ATCC 6633, 48 h
# [21] = system: OVCAR-3; test: Growth inhibition of Homo sapiens (human) OVCAR3 cells at 10 uM after 48 hr by SRB assay; settings: OVCAR-3, 48 h, read-out: GI
# [22] = system: UACC-62; test: Growth inhibition of Homo sapiens (human) UACC62 cells at 10 uM after 48 hr by SRB assay; settings: UACC-62, 48 h, read-out: GI
# [23] = system: MDA-MB-435; test: Growth inhibition of Homo sapiens (human) MDA-MB-435 cells at 10 uM after 48 hr by SRB assay; settings: MDA-MB-435, 48 h, read-out: GI
# [24] = system: Malme-3M; test: Growth inhibition of Homo sapiens (human) MALME-3M cells at 10 uM after 48 hr by SRB assay; settings: read-out: GI
# [25] = system: U-251; test: Growth inhibition of Homo sapiens (human) U251 cells at 10 uM after 48 hr by SRB assay; settings: U-251, 48 h, read-out: GI
# [26] = system: SNB-75; test: Growth inhibition of Homo sapiens (human) SNB75 cells at 10 uM after 48 hr by SRB assay; settings: SNB-75, 48 h, read-out: GI
# [27] = system: SF-539; test: Growth inhibition of Homo sapiens (human) SF539 cells at 10 uM after 48 hr by SRB assay; settings: SF-539, 48 h, read-out: GI
# [28] = system: SF-295; test: Growth inhibition of Homo sapiens (human) SF295 cells at 10 uM after 48 hr by SRB assay; settings: SF-295, 48 h, read-out: GI
# [29] = system: KM12; test: Growth inhibition of Homo sapiens (human) KM12 cells at 10 uM after 48 hr by SRB assay; settings: KM12, 48 h, read-out: GI
# [30] = system: HCT-15; test: Growth inhibition of Homo sapiens (human) HCT15 cells at 10 uM after 48 hr by SRB assay; settings: HCT-15, 48 h, read-out: GI
# [31] = read-out: LC50 (the source's name)
smiles,measurement,setting,value
COc1ccc(OC)c(/C=C/c2nnc(S)n2-c2ccc(Cl)cc2)c1,inhibition of growth at 10 µM,[1],70.4%
same,inhibition of growth at 10 µM,[2],54.4%
same,GI50,[3],6.88 µM
same,TGI,[3],> 100 µM
same,CC50,[3]; [31],> 100 µM
same,GI50,[4],4.02 µM
same,TGI,[4],> 100 µM
same,CC50,[4]; [31],> 100 µM
same,GI50,[5],13.3 µM
same,TGI,[5],> 100 µM
same,CC50,[5]; [31],> 100 µM
same,GI50,[6],12.4 µM
same,TGI,[6],68.4 µM
same,CC50,[6]; [31],> 100 µM
same,inhibition of growth at 10 µM,[7],51.3%
same,MBC,[8],100 µg/mL
same,MIC,[8],100 µg/mL
same,GI50,[9],3.51 µM
same,TGI,[9],55.4 µM
same,CC50,[9]; [31],> 100 µM
same,GI50,[10],4.5 µM
same,TGI,[10],> 100 µM
same,CC50,[10]; [31],> 100 µM
same,GI50,[11],9.38 µM
same,TGI,[11],> 100 µM
same,CC50,[11]; [31],> 100 µM
same,GI50,[12],14.5 µM
same,TGI,[12],> 100 µM
same,CC50,[12]; [31],> 100 µM
same,GI50,[13],19.1 µM
same,TGI,[13],> 100 µM
same,CC50,[13]; [31],> 100 µM
same,GI50,[14],8.91 µM
same,TGI,[14],> 100 µM
same,CC50,[14]; [31],> 100 µM
same,GI50,[15],2.25 µM
same,LC50 (50% lethal concentration),[15],> 100 µM
same,GI50,[16],2.8 µM
same,CC50,[16]; [31],> 100 µM
same,inhibition of growth at 10 µM,[17],41.1%
same,GI50,[18],3.11 µM
same,LC50,[18],> 100 µM
same,TGI,[18],> 100 µM
same,GI50,[19],3.58 µM
same,LC50,[19],> 100 µM
same,TGI,[19],> 100 µM
same,MBC,[20],100 µg/mL
same,MIC,[20],100 µg/mL
same,inhibition of growth at 10 µM,[21],70.6%
same,inhibition of growth at 10 µM,[22],57.2%
same,inhibition of growth at 10 µM,[23],110%
same,inhibition of growth at 10 µM,[24],70.2%
same,inhibition of growth at 10 µM,[25],46.7%
same,inhibition of growth at 10 µM,[26],57.5%
same,inhibition of growth at 10 µM,[27],60.5%
same,inhibition of growth at 10 µM,[28],68.8%
same,inhibition of growth at 10 µM,[29],59.1%
same,inhibition of growth at 10 µM,[30],58.8%
